According to patent US10039760B2, “Method of using diketopiperazines and composition containing them” (Ampio Pharmaceuticals, Inc., priority 2000, dated 2018):

Tested on: NHBE 6122 normal human bronchial epithelial cells
Experiment: PAF-induced release of IL-8 by NHBE 6122 cells (IL-8 ELISA of cell supernatants)
Format: cell-based
Method: NHBE 6122 normal human bronchial epithelial cells (Clonetics, San Diego, Calif.) were added to a 24-well tissue culture plate (Falcon, now BD Biosciences, Franklin Lakes, […]) in BEGM (bronchial epithelial growth medium; Clonetics) containing epinephrine (complete medium) at 37° C. and 5% CO2. After adhering, the cells were washed twice with BEGM medium without epinephrine. They were then incubated in complete medium or in complete medium containing 20 μM 3-methyl-2,5-diketopiperazine-6-acetic acid (DA-DKP; preparation described in Example 1, 5; stock solution made in HEPES buffered saline (HBSS; Clonetics) at 4 mM for 20 minutes at 37° C. and 5% CO2. Platelet activating factor (PAF; Sigma, St. Louis, Mo.) dissolved in dimethylsulfoxide (DMSO; tissue culture grade; Sigma, St. Louis, Mo.) was then added to a final concentration of 100 nM or 500 nM, and the cells were incubated for an additional 6 hours at 37° C. and 5% CO2. Medium containing DMSO and HBSS was used as a control.
The concentration of IL-8 in cell supernatants was determined by an ELISA using human IL-8 matched pair antibodies (Endogen, Cambridge, Mass.). The ELISA was performed using an ELISA kit from Endogen, Cambridge, Mass. according to the manufacturer's instructions with the following exceptions: (1) coating antibody at 1 μg/ml; (2) detecting antibody 30 ng/ml; StrepAvidin HRP diluted 1:32,000.

## 1-O-alkyl-2-acetyl-sn-glycerol-3-phosphorylcholine [PAF, reference compound]
Table 1, PAF 100 nM alone, 20,000 cells/well, 6 hours
  IL-8: 1094.68 pg/mL
Table 2, PAF 500 nM alone, 20,000 cells/well, 6 hours
  IL-8: 887.87 pg/mL
Table 3, PAF 100 nM alone, cells split to 5,000 cells/well four days prior, grown to 70% confluence
  IL-8: 355.36 pg/mL

## CC1NC(=O)C(CC(=O)O)NC1=O (stereo not shown) [DA-DKP, 3-methyl-2,5-diketopiperazine-6-acetic acid]
Table 1, 20 min pre-incubation with DA-DKP 20 μM, then PAF 100 nM for 6 hours, 20,000 cells/well
  IL-8: 714.91 pg/mL
Table 1, DA-DKP 20 μM alone, no PAF, 20,000 cells/well, 6 hours
  IL-8: 803.11 pg/mL
Table 2, 20 min pre-incubation with DA-DKP 20 μM, then PAF 500 nM for 6 hours, 20,000 cells/well
  IL-8: 542.5 pg/mL
Table 2, DA-DKP 20 μM alone, no PAF, 20,000 cells/well, 6 hours
  IL-8: 837.84 pg/mL
Table 3, DA-DKP 20 μM alone, no PAF, cells split to 5,000 cells/well four days prior, grown to 70% confluence
  IL-8: 184.86 pg/mL
Table 3, pre-incubation with DA-DKP 20 μM, then PAF 100 nM, cells split to 5,000 cells/well four days prior, grown to 70% confluence
  IL-8: 201.93 pg/mL
Result in words, pre-incubation of the cells with the diketopiperazine
  IL-8 secretion induced by PAF: inhibited
